Values of other authors in patent US20150283066A1, “VAGINAL DANAZOL COMBINED WITH NON STEROIDAL ANTI INFLAMMATORY DRUGS (NSAIDS) COMPOSITIONS” (MEDIGLOBE LTD, priority 2011, published 2015).

Settings: literature (University of Helsinki); stated jointly for NSAIDs and tranexamic acid

SMILES: NC[C@H]1CC[C@H](C(=O)O)CC1 [tranexamic acid]
- reduction of menstrual blood loss: 20-60%
